Reference: patent publication US9221833B2, “Antiviral compounds” (GILEAD PHARMASSET LLC, priority 2011, dated 2015)
Where two headings read alike, the source gives them in different places.

Key:
Format in all cases: cell-based, HCV
[1] = test system: genotype 2a JFH-1 replicon (L31 present in NS5A); test: microbe, parasite or virus in culture; conditions: Hepatitis C virus, read-out: 2a JFH
[2] = test system: genotype 2b MD2b-1 strain NS5A gene (M31 present); test: microbe, parasite or virus in culture; conditions: Hepatitis C virus
Protocol: (§1) Evaluation of cell-based anti-HCV activity: Antiviral potency (EC50) was determined using a Renilla luciferase (RLuc)-based HCV replicon reporter assay. […] To perform the assay for genotype 2a (with M31 present in NS5A) or 2b, NS5A chimeric genotype 2a JFH-1 replicons that encodes a RLuc-Neo reporter and either genotype 2a J6 strain NS5A gene or genotype 2b MD2b-1 strain NS5A gene (both with M31 present) respectively, were either transiently transfected (t) into Huh-Lunet cells or were established as stably replicating replicon cells (s) is provided. Either cells were dispensed into 384-well plates for EC50 assays. To perform the assay for genotype 3 and 4, NS5A chimeric genotype 1b Con1 replicons that encodes a Pi-RLuc reporter and either genotype 3a S52 strain NS5A gene or genotype 4a ED43 strain NS5A gene respectively, were transiently transfected (t) into Huh-Lunet cells, which were subsequently dispensed into 384-well plates. Compounds were dissolved in DMSO at a concentration of 10 mM and diluted in DMSO either manually or using an automated pipeting instrument. Serially 3-fold diluted compounds were either manually mixed with cell culture media and added to the seeded cells or directly added to the cells using an automated instrument. […] 72 hours later, cells were lysed and Renilla luciferase activity quantified as recommended by the manufacturer (Promega-Madison, Wis.). Non-linear regression was performed to calculate EC50 values.

[3] = test system: genotype 1a H77 replicon; test: microbe, parasite or virus in culture; conditions: Hepatitis C virus
Protocol: as §1

[4] = test system: genotype 2a JFH-1 replicon (L31 present in NS5A); test: microbe, parasite or virus in culture; conditions: Hepatitis C virus, read-out: 2a JFH (nM)
Protocol: as §1

[5] = test system: genotype 2a J6 strain NS5A gene (M31 present); test: Replicon assay, NS5A chimeric 2a JFH-1 replicon with 2a J6 NS5A, transient (t) or stable (s), Huh-Lunet cells; conditions: Hepatitis C virus
Protocol: as §1

[6] = test system: genotype 3a S52 strain NS5A gene; test: Replicon assay, NS5A chimeric 1b Con1 replicon with 3a NS5A, transiently transfected Huh-Lunet cells; conditions: Hepatitis C virus
Protocol: as §1

[7] = test system: Q30R in genotype 1a NS5A; test: Antiviral potency against resistance mutant, 1a Pi-Rluc replicon in Huh-7-derived cured-51 cells; conditions: Hepatitis C virus
Protocol: as §1
To determine the antiviral potency (EC50) against resistance mutants, resistance mutations, including M28T, Q30R, Q30H, L31M, and Y93C in genotype 1a NS5A and Y93H in genotype 1b NS5A, were introduced individually into either 1a Pi-Rluc or 1b Pi-Rluc replicons by site directed mutagenesis. Replicon RNA of each resistant mutant was transiently transfected into Huh-7-derived cured-51 cells and antiviral potency was determined on these transfected cells as described above.

[8] = test system: genotype 4a ED43 strain NS5A gene; test: Replicon assay, NS5A chimeric 1b Con1 replicon with 4a NS5A, transiently transfected Huh-Lunet cells; conditions: Hepatitis C virus
Protocol: as §1, with “[…],” for “were transiently transfected (t) into Huh-Lunet cells,”

Row | Structure (SMILES) | EC50 [1] | EC50 ([2]; read-out: 2b) | EC50 ([3]; read-out: 1a) | EC50 [4] | EC50 ([5]; read-out: 2a J6) | EC50 ([6]; read-out: 3a) | EC50 ([2]; read-out: 2b (s) (nM)) | EC50 ([7]; read-out: 1a Q30R) | EC50 ([6]; read-out: 3a (nM)) | EC50 ([8]; read-out: 4a) | EC50 ([8]; read-out: 4a (s) (nM)) | EC50 ([2]; read-out: 2b (t) (nM)) | EC50 ([3]; read-out: 1a (nM)) | EC50 ([5]; read-out: 2a J6 (t) (nM)) | EC50 ([7]; read-out: 1a Q30R (nM))
1 | CCC(C)[C@H](NC(=O)OC)C(=O)N1C[C@@H](C)CC1c1ncc(-c2ccc3c(c2)COc2cc4c(ccc5nc([C@@H]6C[C@H](COC)CN6C(=O)[C@@H](NC(=O)OC)C(C)C)[nH]c54)cc2-3)[nH]1 (stereo in doubt) [Example QC, Methyl {(2S)-1-[(2S,4S)-2-(9-{2-[(2S,4S)-1-{(2S,3R)-2-[(methoxycarbonyl)amino]-3-methylpentanoyl}-4-methylpyrrolidin-2-yl]-1H-imidazol-5-yl}-1,11-dihydroisochromeno[4′,3′:6,7]naphtho[1,2-d]imidazol-2-yl)-4-(methoxymethyl)pyrrolidin-1-yl]-3-methyl-1-oxobutan-2-yl}carbamate] | < 1 nM | < 1 nM | < 1 nM | 0.008 nM | < 1 nM |  |  |  |  |  |  |  |  |  | 
2 | COC[C@H]1CC(c2ncc(-c3ccc4c(c3)COc3cc5c(ccc6nc([C@@H]7CC[C@H](C)N7C(=O)[C@@H](NC(=O)OC)C(C)C)[nH]c65)cc3-4)[nH]2)N(C(=O)[C@@H](NC(=O)OC)C(C)OC)C1 (stereo in doubt) [Example QA, Methyl {(2S)-1-[(2S,5S)-2-(9-{2-[(2S,4S)-1-{(2S,3S)-3-methoxy-2-[(methoxycarbonyl)amino]butanoyl}-4-(methoxymethyl)pyrrolidin-2-yl]-1H-imidazol-5-yl}-1,11-dihydroisochromeno[4′,3′:6,7]naphtho[1,2-d]imidazol-2-yl)-5-methylpyrrolidin-1-yl]-3-methyl-1-oxobutan-2-yl}carbamate] | < 1 nM | < 1 nM | < 1 nM | 0.007 nM | < 1 nM | < 1 nM | 0.04 nM | < 1 nM |  |  |  |  |  |  | 
3 | COC(=O)N[C@H](C(=O)N1CCC[C@H]1c1ncc(-c2ccc3c(c2)COc2cc4c(cc2-3)CCc2[nH]c([C@@H]3CCCN3C(=O)[C@H](NC(=O)OC)c3ccccc3)nc2-4)[nH]1)C(C)C [Example MG] | < 1 nM | < 1 nM | < 1 nM |  | < 1 nM | < 1 nM | 0.07 nM | < 1 nM | 0.01 nM | < 1 nM | 0.08 nM |  |  |  | 
4 | COC(=O)N[C@H](C(=O)N1CCC[C@H]1c1nc2c(ccc3cc4c(cc32)OCc2cc(-c3cnc([C@@H]5CCCN5C(=O)[C@H](NC(=O)OC)c5ccccc5)[nH]3)ccc2-4)[nH]1)C(C)C [Example MD] | < 1 nM | < 1 nM | < 1 nM | 0.006 nM | < 1 nM | < 1 nM |  | < 1 nM | 0.006 nM | < 1 nM |  |  |  |  | 
5 | COC[C@H]1C[C@@H](c2nc3ccc4cc5c(cc4c3[nH]2)OCc2cc(-c3cnc([C@@H]4CCCN4C(=O)[C@H](NC(=O)OC)c4ccccc4)[nH]3)ccc2-5)N(C(=O)[C@@H](NC(=O)OC)C(C)OC)C1 (stereo partly drawn) [Example OU, Methyl {(1R)-2-[(2S)-2-(5-{2-[(2S,4S)-1-{(2S)-2-[(methoxycarbonyl)amino]-3-methoxybutanoyl}-4-(methoxymethyl)pyrrolidin-2-yl]-1,11-dihydroisochromeno[4′,3′:6,7]naphtho[1,2-d]imidazol-9-yl}-1H-imidazol-2-yl)pyrrolidin-1-yl]-2-oxo-1-phenylethyl}carbamate] | < 1 nM | < 1 nM | < 1 nM |  |  |  |  |  |  |  |  |  |  |  | 
6 | COC(=O)N[C@H](C(=O)N1CCC[C@H]1c1nc2c([nH]1)CCc1cc3c(cc1-2)OCc1cc(-c2cnc([C@@H]4CCCN4C(=O)[C@H](NC(=O)OC)c4ccccc4)[nH]2)ccc1-3)C(C)C [Example MF, methyl [1-(2-{5-[2-(1-{[(methoxycarbonyl)amino]-3-methyl-1-oxobutan-2-yl}pyrrolidin-2-yl)-1,4,5,11-tetrahydroisochromeno[4′,3′:6,7]naphtho[1,2-d]imidazol-9-yl]-1H-imidazol-2-yl}pyrrolidin-1-yl)-phenyl-1-oxoacet-2-yl]carbamate] | < 1 nM | < 1 nM | < 1 nM |  | < 1 nM | < 1 nM |  | < 1 nM |  | < 1 nM |  |  |  |  | 
7 | CC[C@@H](C)[C@H](NC(=O)OC)C(=O)N1C[C@@H](C)C[C@H]1c1ncc(-c2ccc3c(c2)COc2cc4c(ccc5nc([C@@H]6C[C@H](COC)CN6C(=O)[C@H](NC(=O)OC)c6ccccc6)[nH]c54)cc2-3)[nH]1 [Example QB, Methyl {(1R)-2-[(2S,4S)-2-(9-{2-[(2S,4S)-1-{(2S,3R)-2-[(methoxycarbonyl)amino]-3-methylpentanoyl}-4-methylpyrrolidin-2-yl]-1H-imidazol-5-yl}-1,11-dihydroisochromeno[4′,3′:6,7]naphtho[1,2-d]imidazol-2-yl)-4-(methoxymethyl)pyrrolidin-1-yl]-2-oxo-1-phenylethyl}carbamate] | < 1 nM | < 1 nM | < 1 nM | 0.008 nM | < 1 nM | < 1 nM |  | < 1 nM |  |  |  |  |  |  | 
8 | CC[C@@H](C)C(NC(=O)OC)C(=O)N1C[C@@H](COC)C[C@H]1c1nc2ccc3cc4c(cc3c2[nH]1)OCc1cc(-c2cnc([C@@H]3C[C@H](C)CN3C(=O)[C@@H](NC(=O)OC)[C@H](C)CC)[nH]2)ccc1-4 (stereo partly drawn) [Example QE, Methyl {(3R)-1-[(2S,4S)-2-(9-{2-[(2S,4S)-1-{(2S,3R)-2-[(methoxycarbonyl)amino]-3-methylpentanoyl}-4-methylpyrrolidin-2-yl]-1H-imidazol-5-yl}-1,11-dihydroisochromeno[4′,3′:6,7]naphtho[1,2-d]imidazol-2-yl)-4-(methoxymethyl)pyrrolidin-1-yl]-3-methyl-1-oxopentan-2-yl}carbamate] | < 1 nM | < 1 nM | < 1 nM |  | < 1 nM |  |  |  |  |  |  |  |  |  | 
9 | COC[C@H]1C[C@@H](c2ncc(-c3ccc4c(c3)COc3cc5c(ccc6nc([C@@H]7CCCN7C(=O)[C@H](NC(=O)OC)c7ccccc7)[nH]c65)cc3-4)[nH]2)N(C(=O)[C@@H](NC(=O)OC)C(C)C)C1 [Example PH, methyl {(2S)-1-[(2S,4S)-2-(5-{2-[(2S)-1-{(2R)-2-[(methoxycarbonyl)amino]-2-phenylacetyl}pyrrolidin-2-yl]-1,11-dihydroisochromeno[4′,3′:6,7]naphtho[1,2-d]imidazol-9-yl}-1H-imidazol-2-yl)-4-(methoxymethyl)pyrrolidin-1-yl]-3-methyl-1-oxobutan-2-yl}carbamate] | < 1 nM | < 1 nM | < 1 nM | 0.014 nM | < 1 nM | < 1 nM |  | < 1 nM | 0.029 nM |  |  | 0.042 nM | 0.024 nM | 0.055 nM | 0.051 nM
